Measured values as given in US20260042764A1, “COMPOSITIONS AND METHODS FOR INHIBITION OF KRAS” (TheRas, Inc., priority 2022, published 2026).

Key:
RKN cells (KRAS G12V) = experiment: Cell-based pERK HTRF assay in RKN cells (Biological Example 5)
Method: (§1) Biological Example 5: Cell-based PERK HTRF assay in AsPC-1, SW1900, HPAC, Capan-2, RKN, H358, HCT116, KP-2, H1573, A549, MKN1, and HT1080 cells
(§2) The inhibition of ERK phosphorylation, as measured using the HTRF Advanced Phospho-ERK 1/2 (Thr202/Tyr204) Detection Assay kit (Perkin Elmer), was used to determine the effectiveness of test compounds in disrupting KRAS-driven protein/effector signaling in cells.
(§3) On day 1, cells were seeded into 96-well plates at 2.5×10^4 cells/well in 100 μL of complete growth media supplemented with 10% fetal bovine serum (FBS) and incubated at 37° C., in the presence of 5% CO2.
(§4) On day 2, cells were treated with compounds diluted in DMSO at 0.25% final DMSO concentration. Compounds were dosed in a 9-point concentration curve with three-fold dilution between concentrations. Cells were incubated in the presence of compound for two hours at 37° C. Following this treatment period, cells were harvested by aspirating the media, adding 40 μL of kit-supplied 1x lysis buffer per well, and shaking for 30 minutes at 250 rpm at room temperature.
(§5) Following cell lysis, samples were homogenized by pipetting up and down twenty times and 16 μL of cell lysate per well was transferred from the 96-well cell culture plate to two wells of a 384-well detection plate. A complete detection buffer was prepared by diluting D2 and Eu Cryptate antibodies 1:20 in kit-provided detection solution, 4 μL of complete detection buffer was then added to each well with lysate. Plates were incubated with gentle rocking for 24 hours at 4° C.
(§6) Following this incubation period, plates were centrifuged at 500×g for one minute and analyzed on a CLARIOstar plate reader. Data was imported into Microsoft Excel and the signal from the 665 nm channel was divided by the signal from the 620 nm channel. % pERK was calculated as: […]
(§7) Data was imported to the Prism software package (Graphpad) and EC50 values were calculated using the log (inhibitor) vs, response—variable slopc (Four parameters) model.

H358 cells (KRAS G12C) [1] = experiment: Cell-based pERK HTRF assay in H358 cells (Biological Example 5)
Method: as §1, §2, §3, §4, §5, §6, §7

AsPC-1 cells (KRAS G12D) = experiment: 3D Cell viability assay in AsPC-1 cells (Biological Example 6); assay type: cell-based; conditions: AsPC-1 (KRAS G12D) spheroids, 72 hours
Method: (§8) Biological Example 6: 3D Cell viability assay in AsPC-1, SW1900, HPAC, Capan-2, RKN, H358, HCT116, KP-2, H1573, A549, MKN1, and HT1080 cells
(§9) The inhibition of cellular viability as a result of test compound treatment in a spheroid assay was measured using the CellTiter-Glow 3D Cell Viability Assay (Promega).
(§10) On Day 1, 1000 cells per well were seeded in 150 μL of complete growth media supplemented with 10% fetal bovine serum (FBS) and incubated at 37° C., in the presence of 5% CO2 in 96-well ultra-low attachment microplates (Corning) for 48 hours undisturbed to allow spheroids to form.
(§11) Following spheroid formation, cells were treated with compounds diluted in DMSO at 0.25% final DMSO concentration. Compounds were dosed in a 9-point concentration curve with three-fold dilution between concentrations. Cells were incubated in the presence of compound for 72 hours at 37° C., in the presence of 5% CO2.
(§12) Following this incubation period, the kit-provided CTG reagent was allowed to equilibrate for 30 minutes at room temperature, 150 μL of equilibrated CTG reagent was added to each well, and the plate was sealed before shaking at 250 rpm for 10 minutes at room temperature to lyse the cells, 150 μL of lysate per well was transferred to a 96-well plate and luminescence was read on a CLARIOstar plate reader.
(§13) Data was imported into the Prism software package (Graphpad) and EC50 values were calculated using the log (inhibitor) vs, response—variable slope (Four parameters) model.

HPAC cells (KRAS G12D) = experiment: 3D Cell viability assay in HPAC cells (Biological Example 6); assay type: cell-based; conditions: HPAC (KRAS G12D) spheroids
Method: as §8, §9, §10, §11, §12, §13

H358 cells (KRAS G12C) [2] = experiment: 3D Cell viability assay in H358 cells (Biological Example 6); assay type: cell-based; conditions: H358 (KRAS G12C) spheroids, 72 hours
Method: as §8, §9, §10, §11, §12, §13

[3] = biological target: T1, Avi-KRAS G12C (2-169) GTP/RAF1 RBD-3xFLAG (51-131) (Homo sapiens, UniProt P01116, G12C); experiment: Raf1-KRAS G12C-GTP disruption HTRF assay (Biological Example 3); assay type: binding; conditions: KRAS G12C, GTP-loaded
T1 construct: Avi-KRAS G12C (2-169)
T1 sequence (P01116 2-169 isoform P01116-2 G12C): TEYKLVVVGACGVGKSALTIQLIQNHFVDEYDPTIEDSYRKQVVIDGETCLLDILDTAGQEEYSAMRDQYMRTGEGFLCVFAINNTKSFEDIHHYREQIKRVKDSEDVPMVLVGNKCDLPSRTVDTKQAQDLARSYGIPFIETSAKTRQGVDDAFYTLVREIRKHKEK
Method in brief: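 HTRF PPI read-out (ex 320 nm, em 615 nm) after 1 h RT incubation with shaking; data as % activity vs DMSO (100%), IC50 from curve fit. Complex 50 nM, RBD reagent 75 nM; compound 30-0.005 μM, 3-fold.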

[4] = Homo sapiens, NCI-H358, H358 (KRAS G12C) cells

IC50 (RKN cells (KRAS G12V))	IC50 (H358 cells (KRAS G12C) [1]; [4])	IC50 (AsPC-1 cells (KRAS G12D); Homo sapiens, ASPC1)	IC50 (H358 cells (KRAS G12C) [2]; Homo sapiens, NCI-H358)	IC50 [3]	IC50 (H358 cells (KRAS G12C) [1]; H358 (KRAS G12C) cells)	IC50 (H358 cells (KRAS G12C) [2])	IC50 (AsPC-1 cells (KRAS G12D))	SMILES	IC50 (HPAC cells (KRAS G12D); Homo sapiens, HPAC, 72 h)	IC50 (HPAC cells (KRAS G12D); 72 hours)
0.1 to 1 µM	0.1 to 1 µM	≤ 0.1 µM	0.1 to 1 µM					C[C@@H]1[C@H](N(C)c2nc(OC[C@@]34CCCN3C[C@H](F)C4)nc3c(F)c(-c4ccc(F)c5sc(N)c(C#N)c45)c(C(F)(F)F)cc23)CC(=O)N1C [Compound 440]	0.1 to 1 µM	
	≤ 0.1 µM		≤ 0.1 µM					N#Cc1c(N)sc2c(F)ccc(-c3c(C(F)(F)F)cc4c(N5CCC[C@@H](O)C5)nc(OC[C@@]56CCCN5C[C@H](F)C6)nc4c3F)c12 [Compound 234]	> 1 µM	
	≤ 0.1 µM		≤ 0.1 µM					CC(=O)N1CC[C@@H](N(C)c2nc(OC[C@@]34CCCN3C[C@H](F)C4)nc3c(F)c(-c4ccc(F)c5sc(N)c(C#N)c45)c(Cl)cc23)[C@H]1C [Compound 398]	0.1 to 1 µM	
≤ 0.1 µM	≤ 0.1 µM	≤ 0.1 µM	≤ 0.1 µM	0.1 to 1 µM				CCN(c1nc(OC[C@@]23CCCN2C[C@H](F)C3)nc2c(F)c(-c3ccc(F)c4sc(N)c(C#N)c34)c(C(F)(F)F)cc12)[C@H]1C[C@H](COC)N(C(=O)C2CC2)C1 (atropisomer, axis not shown) [Compound 696]		
	≤ 0.1 µM		≤ 0.1 µM					C[C@@H]1[C@H](N(C)c2nc(OC[C@@]34CCCN3C[C@H](F)C4)nc3c(F)c(-c4ccc(F)c5sc(N)c(C#N)c45)c(C(F)(F)F)cc23)CCN1C(=O)C1CC1 [Compound 258]	0.1 to 1 µM	
	≤ 0.1 µM		≤ 0.1 µM					CC(=O)N1CC[C@@H](N(C)c2nc(OC[C@@]34CCCN3C[C@H](F)C4)nc3c(F)c(-c4ccc(F)c5sc(N)c(C#N)c45)c(C(F)(F)F)cc23)[C@H]1C (single isomer, unassigned) [Compound 193]	0.1 to 1 µM	
≤ 0.1 µM	≤ 0.1 µM	≤ 0.1 µM	≤ 0.1 µM					N#Cc1cnn2c1CN(c1nc(OC[C@@]34CCCN3C[C@H](F)C4)nc3c(F)c(-c4ccc(F)c5sc(N)c(C#N)c45)c(C(F)(F)F)cc13)CC2 [Compound 392]	0.1 to 1 µM	
≤ 0.1 µM	≤ 0.1 µM	≤ 0.1 µM	≤ 0.1 µM					CCN(c1nc(OC[C@@]23CCCN2C[C@H](F)C3)nc2c(F)c(-c3ccc(F)c4sc(N)c(C#N)c34)c(C(F)(F)F)cc12)[C@H]1C[C@@H](C)N(C(=O)C2COC2)C1 (atropisomer, axis not shown) [Compound 586]	≤ 0.1 µM	
≤ 0.1 µM	≤ 0.1 µM	≤ 0.1 µM	≤ 0.1 µM					CCC(=O)N1C[C@@H](N(CC)c2nc(OC[C@@]34CCCN3C[C@H](F)C4)nc3c(F)c(-c4ccc(F)c5sc(N)c(C#N)c45)c(C(F)(F)F)cc23)C[C@H]1C [Compound 442]	0.1 to 1 µM	
			≤ 0.1 µM					N#Cc1c(N)sc2c(F)ccc(-c3c(C(F)(F)F)cc4c(N5CC6CC5CO6)nc(OC[C@@]56CCCN5C[C@H](F)C6)nc4c3F)c12 (some centres unmarked) [Compound 147]	0.1 to 1 µM	
	≤ 0.1 µM	≤ 0.1 µM	≤ 0.1 µM					CCN(c1nc(OC[C@@]23CCCN2C[C@H](F)C3)nc2c(F)c(-c3ccc(F)c4sc(N)c(C#N)c34)c(C(F)(F)F)cc12)[C@H]1C[C@H](C)N(C(C)=O)C1 [Compound 463]	> 1 µM	
≤ 0.1 µM					≤ 0.1 µM	≤ 0.1 µM		CN(c1nc(OC[C@@]23CCCN2C[C@H](F)C3)nc2c(F)c(-c3ccc(F)c4sc(N)c(C#N)c34)c(C(F)(F)F)cc12)[C@H]1C[C@@H](O)C1 [Compound 19, 2-amino-7-fluoro-4-((S)-8-fluoro-2-(((2R,7aS)-2-fluorotetrahydro-1H-pyrrolizin-7a(5H)-yl)methoxy)-4-(((1s,3R)-3-hydroxycyclobutyl)(methyl)amino)-6-(trifluoromethyl)quinazolin-7-yl)benzo[b]thiophene-3-carbonitrile]		0.1 to 1 µM
≤ 0.1 µM	≤ 0.1 µM	≤ 0.1 µM	≤ 0.1 µM					CCN(c1nc(OC[C@@]23CCCN2C[C@H](F)C3)nc2c(F)c(-c3ccc(F)c4sc(N)c(C#N)c34)c(C(F)(F)F)cc12)[C@H]1CCN(C(=O)C2CC2)[C@@H]1C (atropisomer, axis not shown) [Compound 579]	0.1 to 1 µM	
≤ 0.1 µM	≤ 0.1 µM		≤ 0.1 µM					CCC(=O)N1CC[C@@H](N(C)c2nc(OC[C@@]34CCCN3C[C@H](F)C4)nc3c(F)c(-c4ccc(F)c5sc(N)c(C#N)c45)c(C(F)(F)F)cc23)[C@H]1C [Compound 260]	0.1 to 1 µM	
≤ 0.1 µM	≤ 0.1 µM	≤ 0.1 µM	≤ 0.1 µM					CCN(c1nc(OC[C@@]23CCCN2C[C@H](F)C3)nc2c(F)c(-c3ccc(F)c4sc(N)c(C#N)c34)c(C(F)(F)F)cc12)[C@H]1CCN(C(C)=O)C1 [Compound 262]	≤ 0.1 µM	
	≤ 0.1 µM	≤ 0.1 µM	≤ 0.1 µM					CN(Cc1cccnc1N)c1nc(OC[C@@]23CCCN2C[C@H](F)C3)nc2c(F)c(-c3ccc(F)c4sc(N)c(C#N)c34)c(C(F)(F)F)cc12 [Compound 390]	0.1 to 1 µM	
	≤ 0.1 µM		≤ 0.1 µM					CCN(c1nc(OC[C@@]23CCCN2C[C@H](F)C3)nc2c(F)c(-c3ccc(F)c4sc(N)c(C#N)c34)c(Cl)cc12)[C@@H]1CCN(C(=O)C2CC2)[C@@H]1C [Compound 337]	0.1 to 1 µM	
≤ 0.1 µM	≤ 0.1 µM	≤ 0.1 µM	≤ 0.1 µM	0.1 to 1 µM				CCN(c1nc(OC[C@@]23CCCN2C[C@H](F)C3)nc2c(F)c(-c3ccc(F)c4sc(N)c(C#N)c34)c(C(F)(F)F)cc12)[C@H]1C[C@H](C)N(C(=O)OC)C1 (atropisomer, axis not shown) [Compound 704]		
≤ 0.1 µM					≤ 0.1 µM	≤ 0.1 µM	≤ 0.1 µM	CCN(c1nc(OCC23CCCN2CC(F)C3)nc2c(F)c(-c3ccc(F)c4sc(N)c(C#N)c34)c(C(F)(F)F)cc12)C1CC(C)N(C(=O)N2CC(F)C2)C1 (centres unmarked) [Compound 759]		
	≤ 0.1 µM		≤ 0.1 µM					N#Cc1c(N)sc2c(F)ccc(-c3c(C(F)(F)F)cc4c(N5CCOCC5)nc(OC[C@@]56CCCN5C[C@H](F)C6)nc4c3F)c12 (single isomer, unassigned) [Compound 198]	0.1 to 1 µM	
	≤ 0.1 µM		≤ 0.1 µM					CCN(c1nc(OC[C@@]23CCCN2C[C@H](F)C3)nc2c(F)c(-c3ccc(F)c4sc(N)c(C#N)c34)c(Cl)cc12)[C@@H]1CCN(C(C)=O)[C@@H]1C [Compound 323]	≤ 0.1 µM	
	≤ 0.1 µM		≤ 0.1 µM					N#Cc1c(N)sc2c(F)ccc(-c3c(C(F)(F)F)cc4c(N5CCCOCC5)nc(OC[C@@]56CCCN5C[C@H](F)C6)nc4c3F)c12 [Compound 232]	> 1 µM	
